From ChEMBL document CHEMBL4000237, “Synthesis and biological evaluation of thiazole derivatives as novel USP7 inhibitors” (Bioorg Med Chem Lett, 2017)

Experiments:
[1] = tested on: HCT-116; experiment: Antiproliferative activity against human HCT116 cells expressing wild type p53 assessed as decrease in cell viability after 72 hrs by MTT assay; details: HCT-116, 72 h
[2] = target: Ubiquitin carboxyl-terminal hydrolase 7 (Homo sapiens, UniProt Q93009); experiment: Inhibition of USP7 (unknown origin) using Ub-Rho as substrate preincubated for 30 mins followed by substrate addition and subsequent incubation in dark for 3 hrs by fluorescence assay
Chain of Ubiquitin carboxyl-terminal hydrolase 7 (Q93009 whole entry): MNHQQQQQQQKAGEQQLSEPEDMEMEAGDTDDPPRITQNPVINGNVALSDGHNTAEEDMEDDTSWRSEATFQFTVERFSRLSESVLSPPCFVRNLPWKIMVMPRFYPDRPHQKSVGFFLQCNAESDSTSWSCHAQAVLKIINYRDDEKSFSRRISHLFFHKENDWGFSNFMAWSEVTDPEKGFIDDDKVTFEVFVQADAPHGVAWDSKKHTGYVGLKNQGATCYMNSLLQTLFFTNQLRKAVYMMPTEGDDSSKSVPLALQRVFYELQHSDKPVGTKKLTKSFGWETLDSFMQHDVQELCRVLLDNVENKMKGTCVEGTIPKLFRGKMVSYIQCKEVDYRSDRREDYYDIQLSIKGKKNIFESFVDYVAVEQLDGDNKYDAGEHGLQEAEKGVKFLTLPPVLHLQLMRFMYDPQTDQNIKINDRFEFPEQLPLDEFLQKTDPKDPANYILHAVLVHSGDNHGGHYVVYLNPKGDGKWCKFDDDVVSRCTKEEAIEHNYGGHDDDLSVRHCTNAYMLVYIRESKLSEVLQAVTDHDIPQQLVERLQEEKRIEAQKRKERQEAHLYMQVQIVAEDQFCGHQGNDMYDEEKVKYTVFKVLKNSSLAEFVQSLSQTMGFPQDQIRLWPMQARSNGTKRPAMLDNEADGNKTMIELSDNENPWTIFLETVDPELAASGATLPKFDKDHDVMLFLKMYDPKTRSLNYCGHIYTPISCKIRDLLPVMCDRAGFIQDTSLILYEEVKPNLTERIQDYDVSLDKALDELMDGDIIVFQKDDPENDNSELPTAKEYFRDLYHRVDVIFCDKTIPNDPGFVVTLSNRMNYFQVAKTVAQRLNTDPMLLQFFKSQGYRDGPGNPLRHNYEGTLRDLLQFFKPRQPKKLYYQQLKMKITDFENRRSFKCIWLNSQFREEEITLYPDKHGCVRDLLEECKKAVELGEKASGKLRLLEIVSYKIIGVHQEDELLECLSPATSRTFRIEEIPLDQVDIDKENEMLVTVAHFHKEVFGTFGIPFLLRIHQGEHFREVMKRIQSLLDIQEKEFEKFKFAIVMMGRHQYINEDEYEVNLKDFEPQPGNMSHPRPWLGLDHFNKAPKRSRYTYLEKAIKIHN

[3] = tested on: NCI-H1299; experiment: Antiproliferative activity against p53 deficient human NCI-H1299 cells assessed as decrease in cell viability after 72 hrs by MTT assay; format: functional, cell-based; details: NCI-H1299, 72 h
[4] = Antiproliferative activity against human […] cells expressing p53 mutant assessed as decrease in cell viability after 72 hrs by MTT assay; format: functional, cell-based

## CC(NCc1ccccc1)c1nc([N+](=O)[O-])c(Sc2c(Cl)cncc2Cl)s1 (stereo unspecified)
[1]
  IC50: 11.8 µM
[2]
  IC50: 26.8 µM

## O=C(NCc1ccccc1)c1nc([N+](=O)[O-])c(Sc2c(Cl)cncc2Cl)s1
[1]
  IC50: 13.5 µM
[2]
  IC50: 4.21 µM

## CC(=O)c1ncc(Sc2cccc(Cl)c2Cl)s1
[1]
  IC50: > 50 µM
[2]
  IC50: > 50 µM

## CC(=O)c1nc([N+](=O)[O-])c(Sc2cccc(Cl)c2Cl)s1
[1]
  IC50: 9.29 µM
[2]
  IC50: 9.93 µM

## CC(=O)c1nc([N+](=O)[O-])c(Sc2ccc(F)cc2F)s1
[1]
  IC50: 10.2 µM
[2]
  IC50: 6.12 µM

## CC(OC(=O)c1ccccc1)c1nc([N+](=O)[O-])c(Sc2c(Cl)cncc2Cl)s1 (stereo unspecified)
[1]
  IC50: 12 µM
[2]
  IC50: > 50 µM

## CC(=O)c1nc([N+](=O)[O-])c(Sc2ccc(Cl)c(Cl)c2)s1
[1]
  IC50: 16.4 µM
[2]
  IC50: 18 µM

## COc1cccc(Sc2sc(C(C)=O)nc2[N+](=O)[O-])c1
[1]
  IC50: 17.3 µM
[2]
  IC50: > 50 µM

## CCCC(=O)OC(C)c1nc([N+](=O)[O-])c(Sc2c(Cl)cncc2Cl)s1 (stereo unspecified)
[1]
  IC50: 11.7 µM
[2]
  IC50: 4.49 µM

## O=C(Nc1ccccc1)c1nc([N+](=O)[O-])c(Sc2c(Cl)cncc2Cl)s1
[1]
  IC50: 12.4 µM
[2]
  IC50: 40.5 µM

## CC(=O)c1nc([N+](=O)[O-])c(NCc2ccc(Cl)c(Cl)c2)s1
[1]
  IC50: > 50 µM
[2]
  IC50: > 50 µM

## CC(=O)c1nc([N+](=O)[O-])c(Sc2ccc(Cl)cc2Cl)s1
[1]
  IC50: 12.5 µM
[2]
  IC50: 16.8 µM

## CC(=O)c1nc([N+](=O)[O-])c(Sc2c(Cl)cncc2Cl)s1
[1]
  IC50: 8.45 µM
[3]
  IC50: 6.21 µM
[4]
  IC50: 11 µM
[2]
  IC50: 0.67 µM

## CC(=O)OC(C)c1nc([N+](=O)[O-])c(Sc2c(Cl)cncc2Cl)s1 (stereo unspecified)
[1]
  IC50: 24.8 µM
[2]
  IC50: > 50 µM

## CC(=O)c1ncc(Sc2ccc(Cl)c(Cl)c2)s1
[1]
  IC50: > 50 µM
[2]
  IC50: > 50 µM

## O=C(NCc1cccc(F)c1)c1nc([N+](=O)[O-])c(Sc2c(Cl)cncc2Cl)s1
[1]
  IC50: 6.36 µM
[3]
  IC50: 3.68 µM
[4]
  IC50: 6.11 µM
[2]
  IC50: 1.35 µM

## Cc1ccc(CNC(=O)c2nc([N+](=O)[O-])c(Sc3c(Cl)cncc3Cl)s2)cc1
[1]
  IC50: 6.64 µM
[2]
  IC50: 3.65 µM

## O=C(NCc1ccc(F)cc1)c1nc([N+](=O)[O-])c(Sc2c(Cl)cncc2Cl)s1
[1]
  IC50: 11.2 µM
[2]
  IC50: 2.65 µM

## CC(O)c1nc([N+](=O)[O-])c(Sc2c(Cl)cncc2Cl)s1 (stereo unspecified)
[1]
  IC50: 18.6 µM
[2]
  IC50: 6.95 µM

## COc1ccc(Sc2sc(C(C)=O)nc2[N+](=O)[O-])cc1OC
[1]
  IC50: 24 µM
[2]
  IC50: > 50 µM

## CC(=O)c1nc([N+](=O)[O-])c(Sc2c(Cl)cccc2Cl)s1
[1]
  IC50: 19.3 µM
[2]
  IC50: 4.49 µM
